Reference: patent US20070219346A1, “Glucose sensor and uses thereof” (McGill University, priority 2002, published 2007)
“Also recorded” adds a separate entry of the source.

Assays:
[1] = Glucokinase activity of purified tagged glucokinases, coupled glucose 6-P dehydrogenase/NADPH assay; assay type: biochemical, human
Method: Glucokinase activity was assayed as described previously [Storer, A. C., et al., Biochem. J. 141:205-209 (1974)] with the following modifications. Reactions were carried out at 25° C. in 50 nM glycylglycinate buffer, pH 7.8, containing 1 mM NADP, 100 mM KCl, 5 mM MgCl2, 1 unit of glucose 6-P dehydrogenase, 100 mM glucose, 5 mM ATP, and glucokinase in a total volume of 1 ml. All reaction mixtures were incubated at 25° C.
Production of NADPH was followed by the increase in absorbance at 340 nm using a spectrophotometer. Glucokinase activity may then be calculated using the following formula: Activity (units/ml)=(Δ OD/min)/0.15×dilution factor
A unit of activity is the amount of glucokinase which transforms, under optimal conditions, 1 μmole of substrate/min at room temperature.
The glucokinase activity of the purified glucokinases was assayed as above.

[2] = Intrinsic fluorescence spectroscopy of His-tagged glucokinase in solution; assay type: binding, human; details: 100 mM glucose, excitation 280 nm
Method: FIG. 7 depicts fluorescence spectroscopy analysis of His-tagged glucokinase. The intrinsic fluorescence intensity spectrum of His-tagged wild-type glucokinase was measured following excitation at 280 nm. The baseline spectrum of His-tagged glucokinase alone is shown (His-GLK, thin dashed line).
Intrinsic fluorescence experiments with glucokinase were performed to document and verify glucose-induced conformational changes, which is an absolute requirement for impedance biosensing to be successful. Purified wild-type N-terminal His-tagged glucokinase (10 μg) with enzyme specific activity of ≅200 U/mg was used in a 10×10 mm^2 cuvette. After the addition of 100 mM glucose, intrinsic fluorescence spectroscopy was performed (excitation wavelength 280 nm; maximum fluorescence 312 nm). There is a 20-25% increase in maximal intrinsic fluorescence at 312 nm with the addition of 100 mM glucose, reflective of conformational changes in the His-tagged glucokinase (FIG. 7). This is similar to native wild-type glucokinase [Xu L Z, Zhang W, Weber I T, Harrison R W, Pilkis S J. 1994. Site-directed mutagenesis studies on the determinants of sugar specificity and cooperative behavior of human beta-cell glucokinase. J Biol Chem 269:27458-27465; and Xu L Z, Weber I T, Harrison R W, Gidh-Jain M, Pilkis S J. 1995. […]

[3] = Intrinsic fluorescence spectroscopy of His-tagged glucokinase immobilized on Ni-NTA agarose; assay type: binding, human; details: for change of maximal intrinsic fluorescence in presence of glucose, immobilized protein: 100 mM glucose, Ni-NTA agarose bound
Method: FIG. 8 depicts fluorescence spectroscopy analysis of His-tagged glucokinase immobilized on Ni-NTA agarose (QIAGEN). The intrinsic fluorescence intensity spectra were measured in the absence and presence of 100 mM glucose following excitation at 280 nm. The baseline spectrum of immobilized His-tagged glucokinase alone is shown (Ni-NTA-His-GLK, thin line).
Intrinsic fluorescence experiments were performed on purified immobilized wild-type N-terminal His-tagged glucokinase (FIG. 8). […] Next, immobilized His-GLK that had been previously incubated with glucose was washed with glucose-free buffer. […] When the washed Ni^2+-bound His-GLK was incubated with glucose, again an upward shift in the fluorescence intensity occurred, indicative of a recurring conformational change in the protein.

[4] = Impedance biosensing with His-GLK immobilized on Ni2+-NTA screen-printed electrodes; set-up: species or system human; details: 100 mM glucose, Ni2+-NTA screen-printed electrode
Method: FIG. 9 depicts A) Immobilized-metal affinity chromatography (IMAC). Adjacent histidine residues in His-tagged proteins interact with the Ni^2+-NTA matrix. B-D) Typical Nyquist diagrams obtained for different electrode surface conditions. The imaginary (Zi) and real (Zr) complex impedence elements were calculated by computer following impedence measurements. B) Modification of screen-printed electrode (SPE) with NTA ligand. Nitrilotriacetic acid (NTA) ligand was coupled to the bare SPE electrode surface using 1-ethyl-3-(3-dimethylaminopropyl)-carbodiimide (EDC) activation. C) Immobilization of glucokinase. The SPE was loaded with Ni^2+ cations (Ni2+) and His-tagged wild-type glucokinase (GLK) immobilized on the surface. D) Detection of glucose.
To establish the use of modified re-engineered glucokinase molecules as potential mediators of glucose recognition, experiments were performed using impedance biosensing technology. The initial objectives were to covalently immobilize wild-type glucokinase on two potential electrode substrates: silicon (Si; industry standard), and screen-printed graphite (SP) electrodes [Marquette, C. A. et al., Anal. Chem., 78:959-964 (2006)]. Impedance measurements were used to monitor the changes of glucokinase in the presence of glucose. […]
Each step was analyzed by bioimpedance measurements. […]

[5] = Enzymatic activity of glucokinase immobilized on solid supports or electrode surfaces; assay type: biochemical, human; details: for glucokinase activity while immobilized: on glutathione or Ni2+-containing supports
Method: The enzymatic activity of the wild-type GST and His-tagged glucokinases was measured while the proteins were immobilized on glutathione or Ni^2+-containing supports, respectively.
This was not a complete surprise, as the final coupling requires free amino groups of the protein. Most likely there are a significant number of such groups involved, but in the process of participating in the coupling, enzyme function is destroyed.
Each step was analyzed by bioimpedance measurements. First, nitrilotriacetic acid (NTA) ligand (FIG. 9A) was coupled to SP electrode surface using 1-ethyl-3-(3-dimethylaminopropyl)-carbodiimide (EDC) activation (FIG. 9B). Electrodes were then loaded with Ni^2+ cations. Wild-type His-GLK (1 μg) was then avidly coupled to the electrode surface, again corroborated by impedance measurements (FIG. 9C). These prepared electrodes were subsequently used as glucose biosensors.

increase in maximal intrinsic fluorescence at 312 nm [2]	change of maximal intrinsic fluorescence in presence of glucose, immobilized protein ([3]; listed as Ni-NTA-His-GLK)	reversibility of glucose binding ([3]; immobilized, washed with glucose-free buffer)	Substance	glucokinase enzymatic activity ([1]; purified affinity-tagged protein, 100 mM glucose, 5 mM ATP, 25° C.)	enzyme specific activity ([1]; purified wild-type N-terminal His-tagged glucokinase)	change of maximum intrinsic fluorescence intensity on glucose addition ([2]; in solution)	change of maximal intrinsic fluorescence in presence of glucose, immobilized protein [3]	impedance change in the presence of glucose [4]	impedance change in the presence of glucose ([4]; listed as His-tagged GLK)	glucokinase activity while immobilized [5]	glucokinase activity while immobilized ([5]; listed as His-tagged glucokinase)	enzyme activity after covalent coupling to electrode surface ([5]; nitrobenzenediazoniun/glutaraldehyde coupling)
20-25%	maximum fluorescence intensity increased	reversible	His-GLK: wild-type human liver glucokinase with N-terminal polyhistidine tag, expressed from pET-15b in E. coli	expected enzymatic activity; also recorded: significant glucokinase enzymatic activity	~200 U/mg	increase in the maximum fluorescence intensity	increase in the maximal intrinsic fluorescence	significant impedance changes	significant shift to the left in the curve	retained glucokinase activity	retained full enzymatic activity	–
–	–	–	glucokinase: human wild-type glucokinase, hexokinase family enzyme binding D-glucose	–	–	–	–	–	–	–	–	total loss of enzyme activity
